# Laboratory results from patent US20090208934A1, “PECAM-1 GENOTYPE” (The Johns Hopkins University, priority 2005, published 2009).
# Columns and labels:
# Ren (+/PM) cells = assay: Ren cell aggregation assay; assay type: cell-based; details: 125Val plus 563Asn PECAM-1 transfected, agent added to cell suspension at two concentrations, 90 rpm, 37° C., 20 minutes, FIG. 4
# Experimental: (§1) FIG. 4 depicts the results of a Ren cell aggregation assay. About 2×10^6 of Ren cells, Ren (−), Ren (+/WT) and Ren (+/PM), were seeded in a T75 flask and cultured for 48 hours for aggregation assays. The monodispersed Ren cells suspension (10^6 cells/ml in HBSS with 1 mM CaCl2) were prepared. Next, two concentrations of anti-PECAM-1 antibody (JHS-7) (A), and human rcPECAM-1 (B) were added in. Then, cells were transfected to wells in a 24-well tissue culture tray (1 mL per well) and rotated on a gyratory shaker (at 90 rpm) at 37° C. for 20 minutes. Data are expressed as the percent of total cells present in aggregates. *P<0.05, **P<0.01.
# (§2) A variation of aggregation assay of Takeichi (59) was adopted. Briefly, confluent culture of Ren cells were detached and dispersed and resuspended to about 10^6 cells/ml in HBSS (37° C.) with 1 mM CaCl2. One ml cell aliquots were transfected to wells in a 24-well plate and rotated on a gyratory shaker (At 90 rpm) at 37° C. for 20 minutes, then stopped by addition of glutaraldehyde to a final concentration of 2%. Aggregation was quantified by examining representative aliquot of equal volumes from each sample on a hemacytometer grid under phase contrast optics. Cells remaining as single cells or present in aggregates (≧3 cells clots) were counted in nine squares. Data are expressed as the percent of total cells present in aggregates.
# Ren (+/WT) cells = assay: Ren cell aggregation assay; assay type: cell-based; details: wild type PECAM-1 transfected, agent added to cell suspension at two concentrations, 90 rpm, 37° C., 20 minutes, FIG. 4
# Experimental: as §1, §2
substance,measurement,setting,value
"recombinant human PECAM-1 protein: Soluble recombinant PECAM-1 (95˜98 KDa, containing only the extracellular domains), purchased from R&D Systems (Cat# ADP6C)",effect on Ren cell aggregation (percent of total cells present in aggregates),Ren (+/PM) cells,attenuated the aggregation
same,effect on Ren cell aggregation (percent of total cells present in aggregates),Ren (+/WT) cells,attenuated the aggregation
